From US20260070906A1, “IMIDAZO[4,5-C]PYRIDINE COMPOUNDS FOR THE TREATMENT OF CANCER” (Hoffmann-La Roche Inc., priority 2023, published 2026)

Assays:
human TLR8 = target: T1, human TLR8 (Homo sapiens, UniProt Q9NR97); assay: HEK293-Blue-hTLR8 cells assay (NF-κB SEAP reporter); assay type: cell-based; details: 20 hours incubation, agonism
T1 construct: host or cells: HEK293-Blue-hTLR8 (HEK293)
T1 sequence (Q9NR97 27-1041): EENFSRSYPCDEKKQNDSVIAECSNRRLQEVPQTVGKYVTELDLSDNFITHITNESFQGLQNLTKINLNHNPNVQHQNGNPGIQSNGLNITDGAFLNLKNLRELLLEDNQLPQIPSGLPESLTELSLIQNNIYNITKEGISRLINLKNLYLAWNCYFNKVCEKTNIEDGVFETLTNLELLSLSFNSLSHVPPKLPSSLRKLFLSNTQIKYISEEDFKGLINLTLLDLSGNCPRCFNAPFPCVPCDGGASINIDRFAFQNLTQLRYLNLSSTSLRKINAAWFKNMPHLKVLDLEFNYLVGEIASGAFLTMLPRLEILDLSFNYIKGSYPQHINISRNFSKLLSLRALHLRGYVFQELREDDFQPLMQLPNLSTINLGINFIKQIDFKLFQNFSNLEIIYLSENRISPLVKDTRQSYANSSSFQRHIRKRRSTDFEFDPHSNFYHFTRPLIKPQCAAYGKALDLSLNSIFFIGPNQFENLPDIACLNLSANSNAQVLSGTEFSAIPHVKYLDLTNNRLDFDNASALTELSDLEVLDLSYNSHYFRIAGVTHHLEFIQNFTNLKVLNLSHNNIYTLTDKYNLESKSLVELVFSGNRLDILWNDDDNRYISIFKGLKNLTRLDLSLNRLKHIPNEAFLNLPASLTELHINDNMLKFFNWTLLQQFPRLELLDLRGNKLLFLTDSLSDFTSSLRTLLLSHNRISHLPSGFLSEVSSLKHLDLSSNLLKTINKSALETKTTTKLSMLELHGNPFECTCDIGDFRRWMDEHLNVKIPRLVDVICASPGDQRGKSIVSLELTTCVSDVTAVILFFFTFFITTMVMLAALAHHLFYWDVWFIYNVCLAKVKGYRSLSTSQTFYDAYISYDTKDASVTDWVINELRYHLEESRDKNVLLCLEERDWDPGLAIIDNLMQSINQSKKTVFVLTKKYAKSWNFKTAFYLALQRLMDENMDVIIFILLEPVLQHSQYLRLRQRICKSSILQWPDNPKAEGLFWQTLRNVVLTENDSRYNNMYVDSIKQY
From the text: A stable HEK293-Blue-hTLR8 cell line was purchased from InvivoGen (Cat. #: hkb-htlr8, San Diego, California, USA). These cells were designed for studying the stimulation of human TLR8 by monitoring the activation of NF-κB. A SEAP (secreted embryonic alkaline phosphatase) reporter gene was placed under the control of the IFN-β minimal promoter fused to five NF-κB and AP-1-binding sites. The SEAP was induced by activating NF-κB and AP-1 via stimulating HEK-Blue hTLR8 cells with TLR8 ligands. Therefore the reporter expression was regulated by the NF-κB promoter upon stimulation of human TLR8. The cell culture supernatant SEAP reporter activity was determined using QUANTI-Blue™ kit (Cat. #: rep-qbl, Invivogen, San Diego, Ca, USA) at a wavelength of 650 nm, a detection medium that turns purple to blue in the presence of alkaline phosphatase.
HEK293-Blue-hTLR8 cells were incubated at a density of 250,000-450,000 cells/mL in a volume of 180 μL in a 96-well plate in Dulbecco's Modified Eagle's medium (DMEM) containing 4.5 g/L glucose, 100 U/mL penicillin, 100 μg/mL streptomycin, 100 μg/mL Normocin, 1% (V/V) GlutaMAX™, 10% (v/v) heat-inactivated fetal bovine serum for 24 hours. Then the HEK293-Blue-hTLR8 cells were incubated with addition of 20 μL test compound in a serial dilution in the presence of final DMSO at 1% and perform incubation under 37° C. in a CO2 incubator for 20 hours. Then 20 μL of the supernatant from each well was incubated with 180 μL Quanti-blue substrate solution at 37° C. for 1 hours and the absorbance was read at 620-655 nm using a spectrophotometer. The signalling pathway that TLR8 activation leads to downstream NF-κB activation has been widely accepted, and therefore similar reporter assay was also widely used for evaluating TLR8 agonist.

human TLR7 = target: T2, human TLR7 (Homo sapiens, UniProt Q9NYK1); assay: HEK293-Blue-hTLR7 cells assay (NF-κB SEAP reporter); assay type: cell-based; details: 20 hrs incubation, agonism
T2 construct: host or cells: HEK293-Blue-hTLR7 (HEK293)
T2 sequence (Q9NYK1 27-1049): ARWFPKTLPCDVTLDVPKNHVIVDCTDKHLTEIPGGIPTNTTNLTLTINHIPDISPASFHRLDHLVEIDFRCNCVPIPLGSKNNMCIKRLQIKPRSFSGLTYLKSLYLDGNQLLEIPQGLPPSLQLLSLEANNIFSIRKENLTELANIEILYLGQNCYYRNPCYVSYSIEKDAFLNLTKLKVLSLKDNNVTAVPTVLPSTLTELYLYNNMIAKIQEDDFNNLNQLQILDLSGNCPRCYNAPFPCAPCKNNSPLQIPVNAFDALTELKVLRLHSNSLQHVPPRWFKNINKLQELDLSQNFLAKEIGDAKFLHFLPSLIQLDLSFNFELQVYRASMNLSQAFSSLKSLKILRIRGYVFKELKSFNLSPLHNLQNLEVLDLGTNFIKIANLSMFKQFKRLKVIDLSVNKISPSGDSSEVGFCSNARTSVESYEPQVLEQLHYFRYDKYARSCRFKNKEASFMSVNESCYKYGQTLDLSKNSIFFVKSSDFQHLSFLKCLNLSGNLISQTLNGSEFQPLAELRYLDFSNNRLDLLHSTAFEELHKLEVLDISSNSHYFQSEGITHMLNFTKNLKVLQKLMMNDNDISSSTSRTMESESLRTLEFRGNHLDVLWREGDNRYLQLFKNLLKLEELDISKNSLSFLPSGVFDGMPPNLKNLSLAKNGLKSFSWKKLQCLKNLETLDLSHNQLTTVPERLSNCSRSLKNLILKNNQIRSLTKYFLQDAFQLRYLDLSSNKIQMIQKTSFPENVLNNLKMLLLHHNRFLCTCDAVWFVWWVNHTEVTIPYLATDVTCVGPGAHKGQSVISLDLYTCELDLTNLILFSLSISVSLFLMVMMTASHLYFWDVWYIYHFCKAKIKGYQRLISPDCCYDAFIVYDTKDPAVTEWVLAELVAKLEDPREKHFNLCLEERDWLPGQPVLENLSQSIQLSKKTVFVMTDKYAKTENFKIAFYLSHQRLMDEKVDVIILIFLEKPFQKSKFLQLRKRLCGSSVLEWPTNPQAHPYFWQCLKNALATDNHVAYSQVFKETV
From the text: A stable HEK293-Blue-hTLR7 cell line was purchased from InvivoGen (Cat. #: hkb-htlr7, San Diego, California, USA). These cells were designed for studying the stimulation of human TLR7 by monitoring the activation of NF-κB. A SEAP (secreted embryonic alkaline phosphatase) reporter gene was placed under the control of the IFN-β minimal promoter fused to five NF-κB and AP-1-binding sites. The SEAP was induced by activating NF-κB and AP-1 via stimulating HEK-Blue hTLR7 cells with TLR7 ligands. Therefore the reporter expression was regulated by the NF-κB promoter upon stimulation of human TLR7 for 20 hrs. The cell culture supernatant SEAP reporter activity was determined using QUANTI-Blue™ kit (Cat. #: rep-qbl, Invivogen, San Diego, Ca, USA) at a wavelength of 650 nm, a detection medium that turns purple or blue in the presence of alkaline phosphatase.
HEK293-Blue-hTLR7 cells were incubated at a density of 250,000˜450,000 cells/mL in a volume of 180 μL in a 96-well plate in Dulbecco's Modified Eagle's medium (DMEM) containing 4.5 g/L glucose, 100 U/mL penicillin, 100 μg/mL streptomycin, 100 μg/mL Normocin, 1% (V/V) GlutaMAX™, 10% (V/V) heat-inactivated fetal bovine serum for 24 hrs. Then the HEK293-Blue-hTLR-7 cells were incubated with addition of 20 μL test compound in a serial dilution in the presence of final DMSO at 1% and perform incubation under 37° C. in a CO2 incubator for 20 hrs. Then 20 μL of the supernatant from each well was incubated with 180 μL Quanti-blue substrate solution at 37° C. for 1 hours and the absorbance was read at 620-655 nm using a spectrophotometer. The signalling pathway that TLR7 activation leads to downstream NF-κB activation has been widely accepted, and therefore similar reporter assay was also widely used for evaluating TLR7 agonist (Tsuneyasu Kaisho and Takashi Tanaka, Trends in Immunology, Volume 29, Issue 7, July 2008, […]; Hiroaki Hemmi et al, Nature Immunology 3, 196-200 (2002)).

EC50 (human TLR8) | EC50 (human TLR7) | Structure (SMILES)
14 nM | 15 nM | CCCCc1nc2c(N)nc(C)c(Sc3ccc(CN(C)C)cc3)c2[nH]1 [Example 14, 2-butyl-7-[4-[(dimethylamino)methyl]phenyl]sulfanyl-6-methyl-1H-imidazo[4,5-c]pyridin-4-amine]
22 nM | 6 nM | CCCCc1nc2c(N)nc(C)c(SCCc3ccc(CN(C)C)cc3)c2[nH]1 [Example 15, 2-butyl-7-[2-[4-[(dimethylamino)methyl]phenyl]ethylsulfanyl]-6-methyl-1H-imidazo[4,5-c]pyridin-4-amine]
22 nM | 31 nM | CCOCc1nc2c(N)nc(C)c(Sc3ccc(CN(C)C)c(C)c3O)c2[nH]1 [Example 16, 6-[[4-amino-2-(ethoxymethyl)-6-methyl-1H-imidazo[4,5-c]pyridin-7-yl]sulfanyl]-3-[(dimethylamino)methyl]-2-methyl-phenol]
56 nM | 24 nM | CCOCc1nc2c(N)nc(C)c(Sc3ccc(CN(CC)CC)cc3O)c2[nH]1 [Example 17, 2-[[4-amino-2-(ethoxymethyl)-6-methyl-1H-imidazo[4,5-c]pyridin-7-yl]sulfanyl]-5-(diethylaminomethyl)phenol]
19 nM | 9 nM | CCOCc1nc2c(N)nc(C)c(Sc3ccc(CN(C)C)c4cc[nH]c34)c2[nH]1 [Example 18, 7-[[4-[(dimethylamino)methyl]-1H-indol-7-yl]sulfanyl]-2-(ethoxymethyl)-6-methyl-1H-imidazo[4,5-c]pyridin-4-amine]
43 nM | 48 nM | CCOCc1nc2c(N)nc(C)c(Sc3ccc(CN(C)C)c4cn[nH]c34)c2[nH]1 [Example 19, 7-[[4-[(dimethylamino)methyl]-1H-indazol-7-yl]sulfanyl]-2-(ethoxymethyl)-6-methyl-1H-imidazo[4,5-c]pyridin-4-amine]
40 nM | 22 nM | CCOCc1nc2c(N)nc(C)c(Sc3ccc(CN(C)C)cc3N)c2[nH]1 [Example 20, 7-[2-amino-4-[(dimethylamino)methyl]phenyl]sulfanyl-2-(ethoxymethyl)-6-methyl-LH-imidazo[4,5-c]pyridin-4-amine]
43 nM | 14 nM | CCCCc1nc2c(N)nc(C)c(Sc3ccc(CN(C)C)cc3O)c2[nH]1 [Example 21, 2-[(4-amino-2-butyl-6-methyl-1H-imidazo[4,5-c]pyridin-7-yl)sulfanyl]-5-[(dimethylamino)methyl]phenol]
37 nM | 28 nM | CCOCc1nc2c(N)nc(C)c(Sc3ccc(CN4CCCC4)cc3O)c2[nH]1 [Example 22, 2-[[4-amino-2-(ethoxymethyl)-6-methyl-1H-imidazo[4,5-c]pyridin-7-yl]sulfanyl]-5-(pyrrolidin-1-ylmethyl)phenol]
82 nM | 25 nM | CCOCc1nc2c(N)nc(C)c(Sc3cc(C)c(CN(C)C)cc3O)c2[nH]1 [Example 23, 2-[[4-amino-2-(ethoxymethyl)-6-methyl-1H-imidazo[4,5-c]pyridin-7-yl]sulfanyl]-5-[(dimethylamino)methyl]-4-methyl-phenol]
56 nM | 22 nM | CCOCc1nc2c(N)nc(C)c(Sc3ccc(C(C)N(C)C)cc3O)c2[nH]1 (stereo not shown) [Example 24, 2-[[4-amino-2-(ethoxymethyl)-6-methyl-1H-imidazo[4,5-c]pyridin-7-yl]sulfanyl]-5-[1-(dimethylamino)ethyl]phenol]
61 nM | 33 nM | CCOCc1nc2c(N)nc(C)c(Sc3cc(O)c(CN(C)C)cc3C)c2[nH]1 [Example 25, 5-[[4-amino-2-(ethoxymethyl)-6-methyl-1H-imidazo[4,5-c]pyridin-7-yl]sulfanyl]-2-[(dimethylamino)methyl]-4-methyl-phenol]
15 nM | 21 nM | CCOCc1nc2c(N)nc(C)c(Sc3ccc(CN4CCCC4)cc3N)c2[nH]1 [Example 26, 7-[2-amino-4-(pyrrolidin-1-ylmethyl)phenyl]sulfanyl-2-(ethoxymethyl)-6-methyl-1H-imidazo[4,5-c]pyridin-4-amine]
52 nM | 39 nM | CCOCc1nc2c(N)nc(C)c(Sc3ccc(CN4CCN(C)CC4)cc3N)c2[nH]1 [Example 27, 7-[2-amino-4-[(4-methylpiperazin-1-yl)methyl]phenyl]sulfanyl-2-(ethoxymethyl)-6-methyl-1H-imidazo[4,5-c]pyridin-4-amine]
